These results are taken from patent publication US6127382A, “Amines substituted with a tetrahydroquinolinyl group an aryl or heteroaryl group and an alkyl group, having retinoid-like biological activity” (Allergan Sales, Inc., priority 1999, dated 2000).

One experiment addresses T1, RARγ (Homo sapiens, UniProt P13631).
T1 sequence (P13631 1-454): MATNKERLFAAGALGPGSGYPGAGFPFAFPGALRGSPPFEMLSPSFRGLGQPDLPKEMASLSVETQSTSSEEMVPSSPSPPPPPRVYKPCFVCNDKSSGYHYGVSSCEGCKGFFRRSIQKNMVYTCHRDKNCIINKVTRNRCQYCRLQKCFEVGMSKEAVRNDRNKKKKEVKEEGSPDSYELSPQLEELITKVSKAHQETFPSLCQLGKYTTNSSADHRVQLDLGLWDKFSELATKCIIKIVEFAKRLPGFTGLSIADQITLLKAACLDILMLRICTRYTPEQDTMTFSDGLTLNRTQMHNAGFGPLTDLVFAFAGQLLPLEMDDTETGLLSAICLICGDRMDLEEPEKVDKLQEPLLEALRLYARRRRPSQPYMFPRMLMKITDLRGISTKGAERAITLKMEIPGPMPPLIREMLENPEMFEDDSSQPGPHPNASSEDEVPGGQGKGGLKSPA
Kind of experiment: ligand binding assay, RARγ. Conditions: read-out: RAR Bind Ki γ. From the text: (§1) Other assays described below, measure the ability of the compounds of the present invention to bind to, and/or activate various retinoid receptor subtypes. When in these assays a compound binds to a given receptor subtype and activates the transcription of a reporter gene through that subtype, then the compound is considered an agonist of that receptor subtype. […] In the below described assays the ability of the compounds to bind to RARα, RARβ, RARγ, RXRα, RXRβ and RXRγ receptors, and the ability or inability of the compounds to activate transcription of a reporter gene through these receptor subtypes can be tested. […] However, some of the compounds of the invention may behave as retinoid antagonists or partial antagonists and/or as inverse agonists. Because of the complex distribution of the different retinoid receptors in various organs of the mammalian body partial agonists and partial antagonists and compounds which have the characteristics of both may lend themselves to particularly useful therapeutic applications and may avoid serious side effects of conventional retinoid drugs.
(§2) A holoreceptor transactivation assay and a ligand binding assay which measure the antagonist/agonist like activity of the compounds of the invention, or their ability to bind to the several retinoid receptor subtypes, respectively, are described in published PCT Application No. WO WO93/11755 (particularly on pages 30-33 and 37-41) published on Jun. 24, 1993, the specification of which is also incorporated herein by reference. A detailed experimental procedure for holoreceptor transactivations has been described by Heyman et al. Cell 68, 397-406, (1992); Allegretto et al. J. Biol. Chem. 268, 26625-26633, and Mangelsdorf et al. The Retinoids: Biology, Chemistry and Medicine, pp 319-349, Raven Press Ltd., New York, which are expressly incorporated herein by reference. The results obtained in this assay are expressed in EC50 numbers, as they are also in the chimeric receptor transactivation assay. The results of ligand binding assay are expressed in Kd numbers. (See Cheng et al. Biochemical Pharmacology Vol. 22 pp 3099-3108, expressly incorporated herein by reference.)
(§3) Table 1 discloses the activity of certain exemplary compounds of the invention in the above-described chimeric receptor transactivation assay, holoreceptor transactivation assay and a ligand binding assays. Particularly, the transactivation data pertaining to RAR receptors were obtained in the chimeric assay, and the data pertaining to transactivation of RXR receptors were obtained in the holoreceptor transactivation assay.

Another experiment addresses T2, RXRα (Homo sapiens, UniProt P19793).
T2 construct: expressed in transfected cells
T2 sequence (P19793 1-462): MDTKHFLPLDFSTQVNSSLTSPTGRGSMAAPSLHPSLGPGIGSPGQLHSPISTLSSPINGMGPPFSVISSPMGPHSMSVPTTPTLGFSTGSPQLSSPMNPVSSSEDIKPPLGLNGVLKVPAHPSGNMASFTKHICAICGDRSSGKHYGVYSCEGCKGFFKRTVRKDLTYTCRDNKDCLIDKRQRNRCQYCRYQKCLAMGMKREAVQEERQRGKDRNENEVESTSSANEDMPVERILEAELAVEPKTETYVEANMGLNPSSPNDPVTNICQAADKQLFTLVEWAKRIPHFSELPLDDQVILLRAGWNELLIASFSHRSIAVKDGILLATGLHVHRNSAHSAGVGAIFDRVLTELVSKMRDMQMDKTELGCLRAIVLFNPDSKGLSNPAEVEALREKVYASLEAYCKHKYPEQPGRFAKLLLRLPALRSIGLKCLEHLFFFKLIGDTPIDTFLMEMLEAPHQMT
The experiment can be described thus: ligand binding assay, RXRα. The note with it: read-out: RXR Bind Ki α.
Description: as §1, §2, §3

For another experiment, the target named is T3, RARα (Homo sapiens, UniProt P10276).
T3 sequence (P10276 1-462): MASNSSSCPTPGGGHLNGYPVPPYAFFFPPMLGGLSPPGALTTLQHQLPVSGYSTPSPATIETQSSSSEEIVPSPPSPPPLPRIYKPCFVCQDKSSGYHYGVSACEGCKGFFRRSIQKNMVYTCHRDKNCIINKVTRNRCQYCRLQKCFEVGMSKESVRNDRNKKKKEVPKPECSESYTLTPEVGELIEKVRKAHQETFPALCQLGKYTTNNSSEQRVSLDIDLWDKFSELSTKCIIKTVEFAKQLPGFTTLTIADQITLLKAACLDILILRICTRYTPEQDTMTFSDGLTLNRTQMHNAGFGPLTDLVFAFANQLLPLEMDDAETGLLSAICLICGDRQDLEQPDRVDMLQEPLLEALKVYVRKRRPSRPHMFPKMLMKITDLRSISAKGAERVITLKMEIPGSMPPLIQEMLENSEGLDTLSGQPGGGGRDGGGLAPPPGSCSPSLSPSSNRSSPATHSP
The experiment can be described thus: ligand binding assay, RARα. The note with it: read-out: RAR Bind Ki α.
Description: as §1, §2, §3

For the next experiment, the target named is T4, RARβ (Homo sapiens, UniProt P10826).
T4 sequence (P10826 1-448 isoform P10826-2): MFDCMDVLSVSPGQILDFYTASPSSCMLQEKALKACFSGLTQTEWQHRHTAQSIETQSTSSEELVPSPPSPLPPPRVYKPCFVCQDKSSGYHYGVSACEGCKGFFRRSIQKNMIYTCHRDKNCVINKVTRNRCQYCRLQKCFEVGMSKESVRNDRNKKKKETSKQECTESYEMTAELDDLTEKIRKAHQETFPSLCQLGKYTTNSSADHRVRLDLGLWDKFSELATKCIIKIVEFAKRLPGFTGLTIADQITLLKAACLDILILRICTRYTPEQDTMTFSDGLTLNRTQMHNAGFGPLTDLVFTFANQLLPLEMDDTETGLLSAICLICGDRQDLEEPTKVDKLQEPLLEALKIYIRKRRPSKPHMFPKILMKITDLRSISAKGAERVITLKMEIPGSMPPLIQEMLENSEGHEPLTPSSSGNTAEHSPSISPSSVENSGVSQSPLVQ
Kind of experiment: ligand binding assay, RARβ. Conditions: read-out: RAR Bind Ki β.
Description: as §1, §2, §3

The target of a further experiment is T5, RXRγ (Homo sapiens, UniProt P48443).
T5 sequence (P48443 1-463): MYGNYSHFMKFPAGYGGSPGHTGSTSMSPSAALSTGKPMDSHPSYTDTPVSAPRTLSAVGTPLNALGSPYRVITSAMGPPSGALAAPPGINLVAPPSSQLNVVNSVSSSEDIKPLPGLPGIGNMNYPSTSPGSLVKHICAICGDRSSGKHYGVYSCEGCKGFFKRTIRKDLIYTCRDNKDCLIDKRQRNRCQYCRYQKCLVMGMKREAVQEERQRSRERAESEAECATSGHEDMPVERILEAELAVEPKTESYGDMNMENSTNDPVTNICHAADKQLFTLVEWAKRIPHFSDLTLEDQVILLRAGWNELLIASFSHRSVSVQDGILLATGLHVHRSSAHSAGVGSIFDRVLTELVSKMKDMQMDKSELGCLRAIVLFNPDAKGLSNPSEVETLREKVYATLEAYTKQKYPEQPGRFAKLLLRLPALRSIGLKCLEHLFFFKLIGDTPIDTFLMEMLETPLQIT
The experiment can be described thus: ligand binding assay, RXRγ. Conditions: read-out: RXR Bind Ki γ.
Description: as §1, §2, §3

The test system of another experiment is ornithine decarboxylase. The note with it: literature; cited from earlier work.

The term Ki denotes the dissociation constant of the complex between target and ligand, obtained from inhibition or displacement. For `CC(C)N1C(=O)CC(C)(C)c2cc(N(C)c3ccc(C(=O)O)cc3)ccc21` [Compound 5, 4-[(1-Isopropyl-4,4-dimethyl-2-oxo-1,2,3,4-tetrahydroquinolin-6-yl)methylamino]benzoic Acid], the Ki at RARγ is above 30 µM; at RXRα, 56 µM; on RARα it was above 30 µM; at RARβ it was above 30 µM; at RXRγ, above 100 µM.
As to `CC1=C(/C=C/C(C)=C/C=C/C(C)=C/C(=O)O)C(C)(C)CCC1` [Retinoic acid, retinoic acid], the “inhibition of induction of ODC activity by TPA” value in the experiment on ornithine decarboxylase is recorded as “inhibits this induction of ODC activity by TPA”.
